Assay: Inhibition of electron transport protein complex 3 in glioma initiating cells assessed as increase in cell death at 50 uM after 48 hrs relative to control
Format: cell-based

O=CNc1cccc(C(=O)NC2CCCCCCCC2)c1O
fold change (FC): > 1.2
